According to patent US20250019503A1, “METAL COMPLEXED CYANURATE GERMICIDAL ADDITIVE FOR POLYMER COMPOSITIONS” (SABIC Global Technologies B.V., priority 2022, published 2025):

Compound	hygroscopicity (based on lack of mass loss between 55° C. to 133° C.)	most extensive mass loss (at 240° C. to 300° C., attributed to pyrolysis/oxidations) [%]	mass loss (between 55° C. to 100° C., nitrogen and air, attributed to absorbed water)
O=c1[n-]c(=O)n(Cl)c(=O)n1Cl.O=c1[n-]c(=O)n(Cl)c(=O)n1Cl.O=c1[n-]c(=O)n(Cl)c(=O)n1Cl.O=c1[n-]c(=O)n(Cl)c(=O)n1Cl.[Cu+2].[Na+].[Na+] [CuDCC, Copper Dichlorocyanurate]	not hydroscopic	–	–
O=c1nc([O-])n(Cl)c(=O)n1Cl.[Na+] [NaDCC, sodium dichlorocyanurate]	–	~40	around 7%
